Patent US6600028B1, “Tricyclic base analogues” (Amersham Pharmacia Biotech UK Limited, priority 1997, dated 2003)
Read-outs that look alike come from different tables or passages of the source.

Legend:
[1] = system: 3′ to 5′ exonuclease-free version of Klenow fragment of DNA polymerase I (EFK); details: for primer extension product, analogue triphosphate as only nucleotide: Template 1, 20 μM or 80 μM analogue triphosphate alone, 37° C., 3 minutes
Experimental: b) A second primer extension assay was used to compare the triphosphate of the pyrrolo compound (1.14) (dSTP) with the triphosphate of the pyrazolo compound (4.11) as substrates for the 3′ to 5′ exonuclease-free version of Klenow fragment of DNA polymerase I (EFK). The assay used a ^33P 5′ end labelled 15 mer primer hybridised to one of two different 24 mer templates.
One picomole ^33P labelled primer was hybridised to 2 picomoles of template in ×2 Klenow buffer. To this was added either 4 μM dNTPαS, 20 μM or 80 μM analogue triphosphate or a mixture of 4 μM dNTPαS and 20 or 80 μM analogue triphosphate. Two units EFK and 2 mU inorganic pyrophosphatase were used per reaction. Primer alone, primer plus template, primer plus template plus enzyme controls were also carried out. The reactions were incubated at 37° C. for 3 minutes. Reactions were then stopped by the addition of formamide EDTA stop solution. Reaction products were separated on a 19% polyacrylamide 7M urea gel and the product fragments sized by comparison with a ^33P labelled 8 to 32 base oligonucleotide ladder after exposure to Kodak Biomax autoradiography film.

[2] = system: ThermoSequenase DNA polymerase; assay: Cycle sequencing reactions with radiolabelled terminators; type: biochemical; details: for length of sequence obtained: dSTP 40 μM in place of dATP ("A" mix), dITP 37.5 μM or 8-oxo-dGTP 160 μM in place of dGTP
Experimental: The incorporation of dSTP and the pyrazolo compound (4.11) into DNA by ThermoSequenase™ DNA polymerase was examined in cycle sequencing reactions.
The following nucleotide mixes were made up:
a) Standard dNTP mix 7.5 μM dATP, dCTP, dGTP, dTTP
b) Standard dITP mix 7.5 μM dATP, dCTP, dTTP and 37.5 μM dITP
c) 8-oxo-dGTP mix 7.5 μM dATP, dCTP, dTTP and 160 μM 8-oxo-dGTP
d) dSTP “A” mix 7.5 μM dCTP, dGTP, dTTP and 40 μM dSTP
e) Compound (4.11) “A” mix 7.5 μM dCTP, dGTP, dTTP and 40 μM compound (4.11)
f) dSTP “G” mix 7.5 μM dATP, dCTP, dTTP and 80 μM dSTP
g) Compound (4.11) “G” mix 7.5 μM dATP, dCTP, dTTP and 80 μM compound (4.11)
The following reaction master mix was made up:
All reagents were from ThermoSequenase radiolabelled terminator cycle sequencing kit (US79750 Amersham life Science). [α^33P] ddNTP's were from Amersham Pharmacia Biotech (code AH9539).
All reactions were overlayed with mineral oil and then cycled as follows:
The reactions were then heated at 95° C. for 2 minutes before loading onto a 6% polyacrylamide 7M urea gel. The gel was run at 48 mA for 90 minutes. After fixing in 10% acetic acid/10% methanol the gel was dried and exposed to Kodak Biomax autoradiography film.

[3] = molecular target: T1, Taq polymerase (Thermus aquaticus, UniProt P19821); assay: Primer extension assay, incorporation of dSTP into DNA by Taq polymerase; type: biochemical; details: 50 μM dSTP, 72° C., 15 minutes, opposite T or C in template, not opposite A or G
T1 construct: purchased Promega
Experimental: (§1) a) The incorporation of dSTP into DNA by DNA polymerases was examined in primer extension assays. […] Each reaction contained 1 pmol of a 24-mer oligonucleotide: 5′ […] (SEQ ID NO. 1) annealed to 0.25 pmol of a complementary 20-mer oligonucleotide 5′ […] (SEQ ID NO. 2) which was labelled at the 5′ end with 32P, and 1 μl of 10×buffer (for Taq polymerase: 500 mM KCl, 100 mM Tris pH 9 at room temperature, 1% Triton-X 100, 15 mM MgCl2; for the other two enzymes: 50 mM MgCl2, 100 mM Tris pH 7.5 at room temperature, 75 mM DTT). Normal dNTPs, in various combinations, were added, as required, to 50 μM final concentration; dSTP was also used at 50 μM final concentration.
(§2) For each enzyme four reactions were performed:
(§3) iv) plus dSTP, TTP and dCTP.
(§4) A single unit of the appropriate polymerase was added to start each of the reactions; these were incubated for 15 minutes (at 72° C. under mineral oil for Taq, at 37° C. for Pol I derivatives) before being terminated by the addition of 5 μl of termination mix (95% formamide, 20 mM EDTA, 0.05% Bromophenol Blue, 0.05% Xylene Cyanol FF). The reactions were heated to 70° C. for ten minutes before electrophoresis on a 20% polyacrylamide/7M urea gel, which was then exposed to autoradiography film.

[4] = molecular target: T2, Klenow fragment of E. coli DNA polymerase I (Escherichia coli, UniProt P00582); assay: Primer extension assay, incorporation of dSTP into DNA by Klenow fragment; type: biochemical; details: 50 μM dSTP, 37° C., 15 minutes, opposite T or C in template, not opposite A or G
T2 construct: the Klenow fragment of E. coli DNA polymerase I (Boehringer Mannheim); purchased Boehringer Mannheim
Experimental: as §1, §2, §3, §4

[5] = molecular target: 3′ to 5′ exonuclease-free version of Klenow fragment (Escherichia coli, UniProt P00582, D355A/E357A); details: 50 μM dSTP, 37° C., 15 minutes, opposite T or C in template, not opposite A or G
Experimental: as §1, §2, §3, §4

[6] = system: terminal deoxynucleotidyl transferase; assay: Oligonucleotide tailing reaction; type: biochemical; details: 64 μM dNTP or analogue triphosphate, 25 U enzyme, 90 minutes at 37° C.
Experimental: A 15 mer primer (sequence: 5′ TGC ATG TGC TGG AGA 3′) (SEQ ID NO. 6) and 8 to 32 base oligonucleotide markers were 5′ end labelled with [y^33P] ATP and T4 polynucleotide kinase. Reactions were boiled for 5 minutes after labelling to remove any PNK activity. Four picomoles of the labelled primer, 25 U terminal deoxynucleotidyl transferase and 64 μM dNTP or analogue triphosphate were incubated in 25 μl 100 mM cacodylate buffer pH7.2, 2 mM CoCl2 and 0.2 mM 2-mercaptoethanol for 90 minutes at 37° C. […] Autoradiography using Biomax film was carried out on the dry gel.

T1 sequence (P19821 whole entry): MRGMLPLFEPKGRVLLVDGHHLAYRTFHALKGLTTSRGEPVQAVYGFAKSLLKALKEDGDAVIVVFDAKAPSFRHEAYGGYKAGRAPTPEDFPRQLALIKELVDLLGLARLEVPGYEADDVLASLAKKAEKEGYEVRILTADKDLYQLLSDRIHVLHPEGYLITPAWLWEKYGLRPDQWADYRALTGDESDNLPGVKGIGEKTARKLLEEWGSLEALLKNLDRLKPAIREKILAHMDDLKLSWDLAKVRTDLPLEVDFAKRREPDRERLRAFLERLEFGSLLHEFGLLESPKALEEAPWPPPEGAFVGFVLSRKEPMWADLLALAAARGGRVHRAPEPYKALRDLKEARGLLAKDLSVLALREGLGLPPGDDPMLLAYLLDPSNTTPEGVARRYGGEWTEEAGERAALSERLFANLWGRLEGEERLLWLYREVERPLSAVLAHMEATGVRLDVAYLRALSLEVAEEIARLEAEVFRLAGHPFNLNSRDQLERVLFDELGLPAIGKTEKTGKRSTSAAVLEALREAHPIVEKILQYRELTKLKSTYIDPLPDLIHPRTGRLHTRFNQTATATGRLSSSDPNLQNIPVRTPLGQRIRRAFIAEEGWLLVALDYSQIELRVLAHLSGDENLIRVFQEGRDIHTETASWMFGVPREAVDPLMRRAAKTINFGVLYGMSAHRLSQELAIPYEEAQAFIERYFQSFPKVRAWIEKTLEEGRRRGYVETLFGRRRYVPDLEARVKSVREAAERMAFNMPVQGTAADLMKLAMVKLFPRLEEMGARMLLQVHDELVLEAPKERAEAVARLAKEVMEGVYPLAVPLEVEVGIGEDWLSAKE
T2 sequence (P00582 324-928): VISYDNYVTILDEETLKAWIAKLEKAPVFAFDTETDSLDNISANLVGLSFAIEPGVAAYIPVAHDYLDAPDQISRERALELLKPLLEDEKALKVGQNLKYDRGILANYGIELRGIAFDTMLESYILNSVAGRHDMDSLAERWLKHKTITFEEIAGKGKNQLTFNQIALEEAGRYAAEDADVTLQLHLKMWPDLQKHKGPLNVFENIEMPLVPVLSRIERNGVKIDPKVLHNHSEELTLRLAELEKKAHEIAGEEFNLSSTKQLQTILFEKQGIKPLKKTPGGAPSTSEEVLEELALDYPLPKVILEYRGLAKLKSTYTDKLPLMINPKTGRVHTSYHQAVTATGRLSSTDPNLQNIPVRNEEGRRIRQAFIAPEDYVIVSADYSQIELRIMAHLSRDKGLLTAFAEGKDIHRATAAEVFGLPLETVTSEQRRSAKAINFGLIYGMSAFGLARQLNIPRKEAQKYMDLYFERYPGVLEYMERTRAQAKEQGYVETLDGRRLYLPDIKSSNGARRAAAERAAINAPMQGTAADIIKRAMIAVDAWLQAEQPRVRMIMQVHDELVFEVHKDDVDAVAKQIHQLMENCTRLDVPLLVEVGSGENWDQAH
Chain of 3′ to 5′ exonuclease-free version of Klenow fragment (P00582 324-928 D355A/E357A): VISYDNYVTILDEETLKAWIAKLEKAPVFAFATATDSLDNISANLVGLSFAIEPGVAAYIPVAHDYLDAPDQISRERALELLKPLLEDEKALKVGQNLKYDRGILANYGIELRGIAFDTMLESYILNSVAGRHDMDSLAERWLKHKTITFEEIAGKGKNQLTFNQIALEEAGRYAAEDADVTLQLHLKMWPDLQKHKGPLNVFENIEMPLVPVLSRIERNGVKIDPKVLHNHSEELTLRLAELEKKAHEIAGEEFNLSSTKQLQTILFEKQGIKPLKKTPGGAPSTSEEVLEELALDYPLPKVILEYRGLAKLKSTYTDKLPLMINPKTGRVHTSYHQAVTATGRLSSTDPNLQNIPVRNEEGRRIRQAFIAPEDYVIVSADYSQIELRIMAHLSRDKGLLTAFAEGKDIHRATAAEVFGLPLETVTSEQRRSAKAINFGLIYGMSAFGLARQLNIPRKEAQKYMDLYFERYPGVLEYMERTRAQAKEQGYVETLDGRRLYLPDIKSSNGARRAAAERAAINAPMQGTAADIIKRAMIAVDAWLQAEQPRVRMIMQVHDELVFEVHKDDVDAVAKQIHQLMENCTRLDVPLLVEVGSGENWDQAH

With O=P(O)(O)OP(=O)(O)OP(=O)(O)OCC1OC(n2nc3c4c(ncnc42)NOCC3)CC1O (stereo not shown) [Compound 4.11, 1-(2′-deoxy-5′-O-triphosphate-ribofuranosyl)-pyrazolo[3,4-d]pyrimidine[2,3-c]dihydro-oxazepine] the “further extension after incorporation of two analogue residues” value ([1]; Template 1) was “did not occur”, the “native base in whose place the analogue is incorporated” value ([1]; Template 1) was “behaving as A” and the “primer extension product, analogue triphosphate as only nucleotide” value [1] was “did not extend”. For the same molecule, the “primer extension product in the presence of dGTP” value ([1]; Template 1, analogue triphosphate plus dGTP) was “+3 product”, the “effect of incorporation of two analogue residues” value ([1]; Template 2) was “resulted in termination” and the “native base in whose place the analogue is incorporated” value ([1]; Template 2) was “behaved as A rather than G”.

In the case of Nc1nc2c([nH]c(=O)n2[C@H]2C[C@H](O)[C@@H](COP(=O)(O)OP(=O)(O)OP(=O)(O)O)O2)c(=O)[nH]1 [8-oxo dGTP, 8-oxo-dGTP], the “length of sequence obtained” value ([2]; M13 mp18 template, 10 cycles) is reported as 15-20 bases.

With O=c1[nH]cnc2c1ncn2[C@H]1C[C@H](O)[C@@H](COP(=O)(O)OP(=O)(O)OP(=O)(O)O)O1 [dITP] the “band intensities of sequence” value ([2]; M13 mp18 template, 10 cycles, autoradiography) was “uneven band intensities especially in the G track” and the “length of sequence obtained” value ([2]; M13 mp18 template, 10 cycles) was < 200 bases.

“9-(2′-Deoxy-5′-O-triphosphate-ribofuranosyl)-pyrrolo[4,3,2-de]pyrimido[4,5-c]dihydro-oxazepine [dSTP]” was tested, and the “incorporation of dSTP into DNA” value [3] was “can incorporate dSTP as either dGTP or as dATP”, the “incorporation of dSTP into DNA” value [4] was “can incorporate dSTP as either dGTP or as dATP” and the “incorporation of dSTP into DNA” value [5] was “can incorporate dSTP as either dGTP or as dATP”. For the same molecule, the “length of tail added to 15 mer primer” value [6] was “intermediate in size between those of dATP and dGTP”, the “length of sequence obtained” value ([2]; M13 mp18 template, 10 cycles) was > 250 bases and the “quality as polymerase substrate” value ([2]; conclusion from cycle sequencing, compared with dITP) was “very good polymerase substrate”. For the same molecule, the “native base in whose place the analogue is incorporated” value ([1]; Template 1) was “efficiently incorporated in place of both G and A”, the “primer extension product, analogue triphosphate as only nucleotide” value [1] was “+3 product” and the “native base in whose place the analogue is incorporated” value ([1]; Template 2) was “efficiently incorporated as a single G but that multiple additions as G are slow”. For the same molecule, the “primer extension products with mixture of dTTPαS and analogue triphosphate” value ([1]; Template 2, no +1 product) was “+2, +3 and +5 products”.

Nc1nc2c(ncn2[C@H]2C[C@H](O)[C@@H](COP(=O)(O)OP(=O)(O)OP(=O)(O)O)O2)c(=O)[nH]1 [dGTP, reference compound] was tested, and the “length of tail added to 15 mer primer” value [6] was ~50 bases.

For “1-(2′-deoxy-5′-O-triphosphate-ribofuranosyl)-pyrazolo[3,4-d]pyrimidine[2,3-c]dihydro-oxazepine [Compound 4.11]”, the “length of tail added to 15 mer primer” value [6] was “predominantly by a single base”.

With Nc1ncnc2c1ncn2[C@H]1C[C@H](O)[C@@H](COP(=O)(O)OP(=O)(O)OP(=O)(O)O)O1 [dATP, reference compound] the “length of tail added to 15 mer primer” value [6] was “greater than 100 bases”.
